From PMC5218480 (PLoS ONE, 2017)

Test system: MV-4-11 cells
Test: Gene expression microarray analysis (Affymetrix PrimeView) and GSEA
Type: cell-based, human
Design: RFU PODN (11730768_x_at) / Fold change /veh PODN (11730768_x_at) / RFU LINC00158 (11744669_a_at) / Fold change /veh LINC00158 (11744669_a_at) / RFU DUSP10 (11751237_a_at) / Fold change /veh DUSP10 (11751237_a_at) / RFU ID3 (11757404_x_at) / Fold change /veh ID3 (11757404_x_at) / RFU PLEKHG5 (11737974_s_at) / Fold change /veh PLEKHG5 (11737974_s_at) / RFU LRRC4B (11730491_at) / Fold change /veh LRRC4B (11730491_at) / RFU GIMAP4 (11747438_a_at) / Fold change /veh GIMAP4 (11747438_a_at) / RFU KRT8 (11758183_x_at) / Fold change /veh KRT8 (11758183_x_at) / RFU CNN1 (11734310_a_at) / Fold change /veh CNN1 (11734310_a_at) / RFU VPS37D (11726825_at) / Fold change /veh VPS37D (11726825_at) / RFU C10orf10 (11716522_x_at) / Fold change /veh C10orf10 (11716522_x_at) / RFU KIR2DL2 /// KIR2DL4 /// KIR2DL5A /// KIR2DL5B /// KIR2DS1 /// KIR2DS2 /// KIR2DS3 /// KIR2DS4 /// KIR3DL3 /// KIR3DL3 /// KIR3DS1 (11738374_at) / Fold change /veh KIR2DL2 /// KIR2DL4 /// KIR2DL5A /// KIR2DL5B /// KIR2DS1 /// KIR2DS2 /// KIR2DS3 /// KIR2DS4 /// KIR3DL3 /// KIR3DL3 /// KIR3DS1 (11738374_at) / RFU C1QL1 (11718748_at) / Fold change /veh C1QL1 (11718748_at) / RFU TMPRSS4 (11747572_a_at) / Fold change /veh TMPRSS4 (11747572_a_at) / RFU HAMP (11756126_x_at) / Fold change /veh HAMP (11756126_x_at) / RFU RNFT2 (11725882_a_at) / Fold change /veh RNFT2 (11725882_a_at) / RFU NR4A2 (11747474_a_at) / Fold change /veh NR4A2 (11747474_a_at) / RFU ABCC12 (11746883_a_at) / Fold change /veh ABCC12 (11746883_a_at) / RFU TMEM136 (11760407_x_at) / Fold change /veh TMEM136 (11760407_x_at) / RFU CLDN22 /// WWC2 (11732394_at) / Fold change /veh CLDN22 /// WWC2 (11732394_at) / RFU HLA-DPB1 (11760878_x_at) / Fold change /veh HLA-DPB1 (11760878_x_at) / RFU SPINT1 (11716480_a_at) / Fold change /veh SPINT1 (11716480_a_at) / RFU GAP43 (11754022_s_at) / Fold change /veh GAP43 (11754022_s_at) / RFU A4GNT (11735810_at) / Fold change /veh A4GNT (11735810_at) / RFU PRB3 (11715151_x_at) / Fold change /veh PRB3 (11715151_x_at) / RFU TUBB4B (11761932_at) / Fold change /veh TUBB4B (11761932_at) / RFU CAPN14 (11732068_a_at) / Fold change /veh CAPN14 (11732068_a_at) / RFU TMCC2 (11721928_a_at) / Fold change /veh TMCC2 (11721928_a_at) / RFU IRGQ (11745062_a_at) / Fold change /veh IRGQ (11745062_a_at) / RFU FAM174B (11720279_a_at) / Fold change /veh FAM174B (11720279_a_at) / RFU TMPRSS4 (11748680_a_at) / Fold change /veh TMPRSS4 (11748680_a_at) / RFU FAM212B (11763350_a_at) / Fold change /veh FAM212B (11763350_a_at) / RFU PLEKHG5 (11743358_a_at) / Fold change /veh PLEKHG5 (11743358_a_at) / RFU ZSCAN30 (11745921_a_at) / Fold change /veh ZSCAN30 (11745921_a_at) / RFU CMKLR1 (11741424_a_at) / Fold change /veh CMKLR1 (11741424_a_at) / RFU LOC101060620 /// MAPK8IP1 (11723275_at) / Fold change /veh LOC101060620 /// MAPK8IP1 (11723275_at) / RFU SPTSSB (11747773_x_at) / Fold change /veh SPTSSB (11747773_x_at) / RFU PRSS12 (11739890_at) / Fold change /veh PRSS12 (11739890_at) / RFU BIN1 (11741810_x_at) / Fold change /veh BIN1 (11741810_x_at) / RFU WNT11 (11732464_a_at) / Fold change /veh WNT11 (11732464_a_at) / RFU C10orf10 (11716521_a_at) / Fold change /veh C10orf10 (11716521_a_at) / RFU C5orf56 (11738089_at) / Fold change /veh C5orf56 (11738089_at) / RFU CYB561 (11721691_x_at) / Fold change /veh CYB561 (11721691_x_at) / RFU ANKRD19P (11752326_a_at) / Fold change /veh ANKRD19P (11752326_a_at) / RFU OR2T12 /// OR2T33 /// OR2T8 (11738714_s_at) / Fold change /veh OR2T12 /// OR2T33 /// OR2T8 (11738714_s_at) / RFU VCAN (11748164_a_at) / Fold change /veh VCAN (11748164_a_at) / RFU JSRP1 (11732532_at) / Fold change /veh JSRP1 (11732532_at) / RFU KRTAP10-11 (11738290_x_at) / Fold change /veh KRTAP10-11 (11738290_x_at) / RFU MYO3A (11730013_a_at) / Fold change /veh MYO3A (11730013_a_at) / RFU EBF3 (11725865_a_at) / Fold change /veh EBF3 (11725865_a_at) / RFU CAMK2N1 (11719241_x_at) / Fold change /veh CAMK2N1 (11719241_x_at) / RFU C5orf56 (11738088_a_at) / Fold change /veh C5orf56 (11738088_a_at) / RFU OLFML3 (11715873_a_at) / Fold change /veh OLFML3 (11715873_a_at) / RFU LOC100653217 /// NTM (11731650_a_at) / Fold change /veh LOC100653217 /// NTM (11731650_a_at) / RFU MAPK11 (11762145_a_at) / Fold change /veh MAPK11 (11762145_a_at) / RFU FIZ1 (11724087_x_at) / Fold change /veh FIZ1 (11724087_x_at) / RFU OASL (11726364_x_at) / Fold change /veh OASL (11726364_x_at) / RFU SOX15 (11748057_x_at) / Fold change /veh SOX15 (11748057_x_at) / RFU CD79A (11719716_a_at) / Fold change /veh CD79A (11719716_a_at) / RFU HIST1H1D (11736915_at) / Fold change /veh HIST1H1D (11736915_at) / RFU CASKIN2 (11723855_a_at) / Fold change /veh CASKIN2 (11723855_a_at) / RFU LOC730098 (11760151_x_at) / Fold change /veh LOC730098 (11760151_x_at) / RFU OR4N2 (11742367_at) / Fold change /veh OR4N2 (11742367_at) / RFU PRRT2 (11749266_a_at) / Fold change /veh PRRT2 (11749266_a_at) / RFU SNX32 (11753110_a_at) / Fold change /veh SNX32 (11753110_a_at) / RFU CDHR5 (11726645_a_at) / Fold change /veh CDHR5 (11726645_a_at) / RFU RCAN1 (11760418_a_at) / Fold change /veh RCAN1 (11760418_a_at) / RFU FAM167A (11723789_a_at) / Fold change /veh FAM167A (11723789_a_at) / RFU FAM26E (11764081_at) / Fold change /veh FAM26E (11764081_at) / RFU ISYNA1 (11749810_s_at) / Fold change /veh ISYNA1 (11749810_s_at) / RFU ACY1 (11761880_at) / Fold change /veh ACY1 (11761880_at) / RFU 11764098_at / Fold change /veh 11764098_at / RFU SAMD14 (11745864_x_at) / Fold change /veh SAMD14 (11745864_x_at) / RFU NPB (11741838_a_at) / Fold change /veh NPB (11741838_a_at) / RFU TMPRSS6 (11731388_a_at) / Fold change /veh TMPRSS6 (11731388_a_at) / RFU KRTAP10-2 (11738614_at) / Fold change /veh KRTAP10-2 (11738614_at) / RFU ARHGAP8 /// PRR5-ARHGAP8 (11727945_x_at) / Fold change /veh ARHGAP8 /// PRR5-ARHGAP8 (11727945_x_at) / RFU KRTAP5-7 /// NADSYN1 (11734609_at) / Fold change /veh KRTAP5-7 /// NADSYN1 (11734609_at) / RFU RASL12 (11751679_a_at) / Fold change /veh RASL12 (11751679_a_at) / RFU CDKN2B (11736163_a_at) / Fold change /veh CDKN2B (11736163_a_at) / RFU PRF1 (11729649_at) / Fold change /veh PRF1 (11729649_at) / RFU, ZNF638 /// ZNF638-IT1 / Fold change vs veh, ZNF638 /// ZNF638-IT1 / RFU, PANK3 / Fold change vs veh, PANK3 / RFU, SH3YL1 / Fold change vs veh, SH3YL1 / RFU, ZEB2 / Fold change vs veh, ZEB2 / RFU, NRIP1 / Fold change vs veh, NRIP1 / RFU, PTTG1IP / Fold change vs veh, PTTG1IP / RFU, CAPN2 / Fold change vs veh, CAPN2 / RFU, MED14 / Fold change vs veh, MED14 / RFU, SNORA58 / Fold change vs veh, SNORA58 / RFU, C1orf63 / Fold change vs veh, C1orf63 / RFU, LRRFIP1 / Fold change vs veh, LRRFIP1 / RFU, NDUFAF7 / Fold change vs veh, NDUFAF7 / RFU, SLC12A2 / Fold change vs veh, SLC12A2 / RFU, IBTK / Fold change vs veh, IBTK / RFU, ESF1 / Fold change vs veh, ESF1 / Fold change vs veh, TMEM50B / RFU, TAOK1 / Fold change vs veh, TAOK1 / RFU, ACBD3 / Fold change vs veh, ACBD3 / RFU, TMA16 / Fold change vs veh, TMA16 / RFU, RWDD3 / Fold change vs veh, RWDD3 / RFU, BCAT1 / Fold change vs veh, BCAT1 / RFU, EDEM3 / Fold change vs veh, EDEM3 / RFU, TMEM33 / Fold change vs veh, TMEM33 / RFU, WDR75 / Fold change vs veh, WDR75 / RFU, AHCTF1 / Fold change vs veh, AHCTF1 / RFU, TFRC / Fold change vs veh, TFRC / RFU, ZDHHC17 / Fold change vs veh, ZDHHC17 / RFU, NOM1 / Fold change vs veh, NOM1 / RFU, ARL8B / Fold change vs veh, ARL8B / RFU, ZBTB11 / Fold change vs veh, ZBTB11 / RFU, TAMM41 / Fold change vs veh, TAMM41 / RFU, KIAA1704 /// LOC100996395 / Fold change vs veh, KIAA1704 /// LOC100996395 / RFU, ING1 / Fold change vs veh, ING1 / RFU, TRMT61B / Fold change vs veh, TRMT61B / RFU, FUBP3 / Fold change vs veh, FUBP3 / RFU, TP53 / Fold change vs veh, TP53 / RFU, TNKS2 / Fold change vs veh, TNKS2 / RFU, ZFP14 / Fold change vs veh, ZFP14 / RFU, ACTR2 / Fold change vs veh, ACTR2 / RFU, PPP3R1 / Fold change vs veh, PPP3R1 / RFU, PIK3R1 / Fold change vs veh, PIK3R1 / RFU, HNRNPA1 / Fold change vs veh, HNRNPA1 / RFU, RNF170 / Fold change vs veh, RNF170 / RFU, ZNF28 / Fold change vs veh, ZNF28 / RFU, RNGTT / Fold change vs veh, RNGTT / RFU, OGT / Fold change vs veh, OGT / RFU, BRD1 / Fold change vs veh, BRD1 / RFU, MARS / Fold change vs veh, MARS / RFU, ZNF655 / Fold change vs veh, ZNF655 / RFU, FAHD1 / Fold change vs veh, FAHD1 / RFU, BDP1 / Fold change vs veh, BDP1 / RFU, LRRCC1 / Fold change vs veh, LRRCC1 / RFU, ARID1A / Fold change vs veh, ARID1A / RFU, ZNF146 / Fold change vs veh, ZNF146 / RFU, ZNF330 / Fold change vs veh, ZNF330 / RFU, GPN3 / Fold change vs veh, GPN3 / RFU, C9orf123 / Fold change vs veh, C9orf123 / RFU, N4BP2L2 / Fold change vs veh, N4BP2L2 / RFU, ARFIP1 / Fold change vs veh, ARFIP1 / RFU, FAM179B / Fold change vs veh, FAM179B / RFU, BCL10 / Fold change vs veh, BCL10 / RFU, UHRF1BP1L / Fold change vs veh, UHRF1BP1L / RFU, BET1 / Fold change vs veh, BET1 / RFU, CNOT2 / Fold change vs veh, CNOT2 / RFU, ZNF268 / Fold change vs veh, ZNF268 / Fold change vs veh, ZNF507 / RFU, DGCR2 / Fold change vs veh, DGCR2 / RFU, WDSUB1 / Fold change vs veh, WDSUB1 / Fold change vs veh, HSP90B1 /// MIR3652 / RFU, ADSS / Fold change vs veh, ADSS / RFU, GK / Fold change vs veh, GK / RFU, ZNF148 / Fold change vs veh, ZNF148 / RFU, TAF9 / Fold change vs veh, TAF9 / RFU, SLC1A5 / Fold change vs veh, SLC1A5 / RFU, SLMO2 / Fold change vs veh, SLMO2 / RFU, ABCC4 / Fold change vs veh, ABCC4 / RFU, LOC101060439 /// RAP1B / Fold change vs veh, LOC101060439 /// RAP1B / RFU, RFX7 / Fold change vs veh, RFX7 / RFU, GTPBP10 / Fold change vs veh, GTPBP10 / RFU, CNEP1R1 / Fold change vs veh, CNEP1R1 / RFU, BIVM-ERCC5 /// ERCC5 / Fold change vs veh, BIVM-ERCC5 /// ERCC5 / RFU, ILF3 / Fold change vs veh, ILF3 / RFU 11762660_at / Fold change /veh 11762660_at / RFU VCAN (11757783_s_at) / Fold change /veh VCAN (11757783_s_at) / RFU DDX43 (11728927_at) / Fold change /veh DDX43 (11728927_at) / RFU KRT8 (11758188_x_at) / Fold change /veh KRT8 (11758188_x_at) / RFU NKD1 (11759106_at) / Fold change /veh NKD1 (11759106_at) / RFU SRD5A1 (11742802_a_at) / Fold change /veh SRD5A1 (11742802_a_at) / RFU TPSAB1 /// TPSB2 (11721975_s_at) / Fold change /veh TPSAB1 /// TPSB2 (11721975_s_at) / RFU GSTM3 (11746129_a_at) / Fold change /veh GSTM3 (11746129_a_at) / RFU IL23R (11737362_x_at) / Fold change /veh IL23R (11737362_x_at) / RFU TMEM51 (11727254_a_at) / Fold change /veh TMEM51 (11727254_a_at) / RFU PIWIL2 (11732686_x_at) / Fold change /veh PIWIL2 (11732686_x_at) / RFU ORM1 (11744905_x_at) / Fold change /veh ORM1 (11744905_x_at) / RFU CCDC152 (11743942_at) / Fold change /veh CCDC152 (11743942_at) / RFU ECM1 (11717891_a_at) / Fold change /veh ECM1 (11717891_a_at) / RFU IL23R (11748794_a_at) / Fold change /veh IL23R (11748794_a_at) / RFU TNFAIP8L3 (11732012_x_at) / Fold change /veh TNFAIP8L3 (11732012_x_at) / RFU MBOAT4 (11741988_at) / Fold change /veh MBOAT4 (11741988_at) / RFU 11764193_at / Fold change /veh 11764193_at / RFU TMEM53 (11763286_at) / Fold change /veh TMEM53 (11763286_at) / RFU MAGEB2 (11727129_at) / Fold change /veh MAGEB2 (11727129_at) / RFU TMEM200A (11744735_a_at) / Fold change /veh TMEM200A (11744735_a_at) / RFU CCDC152 (11751479_a_at) / Fold change /veh CCDC152 (11751479_a_at) / RFU FAM211A (11726209_a_at) / Fold change /veh FAM211A (11726209_a_at) / RFU RGS16 (11746705_a_at) / Fold change /veh RGS16 (11746705_a_at) / RFU VCAN (11755009_s_at) / Fold change /veh VCAN (11755009_s_at) / RFU RHOB (11743442_s_at) / Fold change /veh RHOB (11743442_s_at) / RFU RGS16 (11720943_a_at) / Fold change /veh RGS16 (11720943_a_at) / RFU RGS16 (11720944_at) / Fold change /veh RGS16 (11720944_at) / RFU, VPS4B / Fold change vs veh, VPS4B / RFU, CREB1 / Fold change vs veh, CREB1 / RFU, DNAJC13 / Fold change vs veh, DNAJC13 / RFU, GNAQ / Fold change vs veh, GNAQ / RFU, CDK5R1 / Fold change vs veh, CDK5R1 / RFU, ZRANB3 / Fold change vs veh, ZRANB3 / RFU, CUL4A / Fold change vs veh, CUL4A / RFU, CCNY / Fold change vs veh, CCNY / RFU, UFL1 / Fold change vs veh, UFL1 / RFU, COG3 / Fold change vs veh, COG3 / RFU, DIAPH2 / Fold change vs veh, DIAPH2 / RFU, SKA2 / Fold change vs veh, SKA2 / RFU, AFF3 / Fold change vs veh, AFF3 / RFU, LMF1 / Fold change vs veh, LMF1 / RFU, IPO11 / Fold change vs veh, IPO11 / RFU, DFFB / Fold change vs veh, DFFB / RFU, FOXP1 / Fold change vs veh, FOXP1 / RFU, CARD8 / Fold change vs veh, CARD8 / RFU, STRN3 / Fold change vs veh, STRN3 / RFU, ADK / Fold change vs veh, ADK / RFU, RASSF2 / Fold change vs veh, RASSF2 / RFU, WIPF1 / Fold change vs veh, WIPF1 / RFU, LARP1B / Fold change vs veh, LARP1B / RFU, RASA1 / Fold change vs veh, RASA1 / RFU, RB1 / Fold change vs veh, RB1 / RFU, PPFIA1 / Fold change vs veh, PPFIA1 / RFU, MAT2A / Fold change vs veh, MAT2A / RFU, CCT5 / Fold change vs veh, CCT5 / RFU, WDR92 / Fold change vs veh, WDR92 / RFU, CUX1 / Fold change vs veh, CUX1 / RFU, TTC7A / Fold change vs veh, TTC7A / RFU, TMEM135 / Fold change vs veh, TMEM135 / RFU, DEPTOR / Fold change vs veh, DEPTOR / RFU, CPM / Fold change vs veh, CPM / RFU, DNAJB6 / Fold change vs veh, DNAJB6 / RFU, CACNA2D3 / Fold change vs veh, CACNA2D3 / RFU, DTX4 / Fold change vs veh, DTX4 / RFU, TFCP2 / Fold change vs veh, TFCP2 / RFU, GMCL1 /// GMCL1P1 / Fold change vs veh, GMCL1 /// GMCL1P1 / RFU, AEBP2 / Fold change vs veh, AEBP2 / RFU, SNHG1 /// SNORD22 /// SNORD25 /// SNORD26 /// SNORD27 /// SNORD28 /// SNORD29 /// SNORD31 / Fold change vs veh, SNHG1 /// SNORD22 /// SNORD25 /// SNORD26 /// SNORD27 /// SNORD28 /// SNORD29 /// SNORD31 / Fold change (Aza/veh), C12orf56 (ProbeSet 11735607_a_at) / Fold change (ACY-1035/veh), C12orf56 (ProbeSet 11735607_a_at) / Fold change (Aza/veh), FGFR1OP (ProbeSet 11751329_s_at) / Fold change (ACY-1035/veh), FGFR1OP (ProbeSet 11751329_s_at) / Fold change (Aza/veh), VPS36 (ProbeSet 11739960_a_at) / Fold change (ACY-1035/veh), VPS36 (ProbeSet 11739960_a_at) / RFU SYPL1 (11715823_x_at) / Fold change /veh SYPL1 (11715823_x_at) / RFU IGFBP7 (11715501_s_at) / Fold change /veh IGFBP7 (11715501_s_at) / RFU REEP3 (11722064_at) / Fold change /veh REEP3 (11722064_at) / RFU IGLL1 (11728026_x_at) / Fold change /veh IGLL1 (11728026_x_at): dose or concentration left out as unconfirmed
Conditions: ProbeSet 11725901_x_at; LIST B

Q: How did the “RFU, RWDD3” value turn out when `Nc1ncn([C@@H]2O[C@H](CO)[C@@H](O)[C@H]2O)c(=O)n1` [azacitidine] was run?
A: The value was 20.92 RFU.
